Measurements taken from patent US20070026073A1, “Amorphous efavirenz and the production thereof” (priority 2005, published 2007).

Experiment: dissolution test, USP apparatus II (paddles), efavirenz released in water
Assay type: physicochemical
Conditions: 50 mg efavirenz equivalent in capsule with 15% croscarmellose sodium, 37° C., 100 rpm
Experimental: FIG. 9 is a plot of percent efavirenz released in water as a function of time for spray dried product using solvent and solvent/non-solvent methods in accordance with Example #8.
Initial release refers to the percent of drug released after 15 minutes in accordance with a standard dissolution test method. Extent of release refers to the percent of drug released after 240 minutes in accordance with the same standard dissolution test method.
Preferably these limits are obtained within about 120 minutes, more particularly within about 60 minutes and still more particularly within about 30 minutes. Dissolution profiles can be determined using USP apparatus II (paddles) (VK 7010®, Varian Inc.), with a bath temperature of 37° C. and a paddle speed of 100 rpm for 240 minutes.
3. The dissolution properties of both amorphous compositions were tested and compared to the crystalline drug form. An amount equivalent to 50 mg efavirenz was analyzed. Powders were hand-filled into size 1 hard gelatin capsules (Shinogi Qualicaps) with an additional 15% croscarmellose sodium (Ac-Di-Sol®, FMC BioPolymers). USP apparatus II (paddles) (VK 7010®, Varian Inc.) was used, with a bath temperature of 37° C. and a paddle speed of 100 rpm for 240 minutes. Both amorphous efavirenz compositions achieved faster rate of release and higher maximum aqueous concentration than the crystalline form (FIG. 9, Table 1). […]

EFV released 15 min (15 min): 7%
EFV released 240 min (240 min): 13%
Compound: O=C1Nc2ccc(Cl)cc2[C@@](C#CC2CC2)(C(F)(F)F)O1 [crystalline efavirenz, (S)-6-chloro-4-(cyclopropylethynyl)-1,4-dihydro-4-(trifluoromethyl)-2H-3,1-benzoxazin-2-one]
